{"source": "patent US20050165028A1", "about": "“Vanilloid receptor ligands and their use in treatments” (priority 2004, published 2005)", "data": [{"smiles": "O=C(Nc1ccc2c(c1)OCCO2)c1ccc(-c2cccs2)cc1", "note": "[Example 15, N-(2,3-Dihydro-benzo[1,4]dioxin-6-yl)-4-thiophen-2-yl-benzamide]", "values": [{"measurement": "melting point", "result": "192 to 195", "unit": "°C"}]}]}
